From patent US20040209915A1, “Library of biphenyl derivatives” (priority 2003, published 2004)

Legend:
[1] = target: T1, human β2 adrenergic receptor (Homo sapiens, UniProt P07550); test: Whole-cell cAMP Flashplate assay with lung epithelial cell line (BEAS-2B) endogenously expressing human β2 adrenergic receptor; format: cell-based; settings: BEAS-2B cells
T1 construct: expressed in transfected cells

M3 muscarinic receptor = target: T2, M3 muscarinic receptor (Homo sapiens, UniProt P20309); test: Radioligand binding assay for muscarinic receptors; settings: displacement of [3H]-NMS, CHO cell membranes
T2 construct: expressed in transfected cells
T2 sequence (P20309 whole entry): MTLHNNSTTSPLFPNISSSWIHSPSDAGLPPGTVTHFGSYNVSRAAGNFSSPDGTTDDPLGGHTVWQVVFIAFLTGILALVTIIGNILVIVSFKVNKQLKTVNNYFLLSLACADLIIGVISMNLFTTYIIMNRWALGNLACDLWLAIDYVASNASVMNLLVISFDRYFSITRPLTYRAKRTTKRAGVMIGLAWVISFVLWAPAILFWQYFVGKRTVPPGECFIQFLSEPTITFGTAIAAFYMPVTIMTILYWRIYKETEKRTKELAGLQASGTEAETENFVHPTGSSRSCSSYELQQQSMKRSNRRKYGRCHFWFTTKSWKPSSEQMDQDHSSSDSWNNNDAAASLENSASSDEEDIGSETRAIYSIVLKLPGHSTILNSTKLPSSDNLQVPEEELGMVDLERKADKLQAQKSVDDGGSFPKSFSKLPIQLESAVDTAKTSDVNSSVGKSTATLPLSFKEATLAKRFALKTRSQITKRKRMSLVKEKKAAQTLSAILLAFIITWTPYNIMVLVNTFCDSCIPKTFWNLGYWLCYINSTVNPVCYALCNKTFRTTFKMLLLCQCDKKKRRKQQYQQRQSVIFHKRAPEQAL
Procedure: CHO cell lines stably expressing cloned human hM1, hM2, hM3 and hM4 muscarinic receptor subtypes, respectively, were grown to near confluency in HAM's F-12 media supplemented with 10% FBS and 250 μg/mL Geneticin. The cells were grown in a 5% CO2, 37° C. incubator and lifted with 2 mM EDTA in dPBS. […] For membrane preparation, cell pellets were resuspended in lysis buffer and homogenized with a Polytron PT-2100 tissue disrupter (Kinematica AG; 20 seconds×2 bursts). Crude membranes were centrifuged at 40,000×g for 15 minutes at 4° C. The membrane pellet was then resuspended with resuspension buffer and homogenized again with the Polytron tissue disrupter.

[2] = target: T1, human β2 adrenergic receptor; test: Whole-cell cAMP Flashplate assay in CHO cell lines heterologously expressing human β2 adrenergic receptor; format: cell-based; settings: CHO-K1 cells
Procedure: Cells were rinsed with PBS and detached in dPBS (Dulbecco's Phosphate Buffered Saline, without CaCl2 and MgCl2) containing 2 mM EDTA or Trypsin-EDTA solution (0.05% trypsin/0.53 mM EDTA). […] About 60,000 to 80,000 cells per well were used in this assay. Test compounds (10 mM in DMSO) were diluted into PBS containing 0.1% BSA in Beckman Biomek-2000 and tested at 11 different concentrations ranging from 100 μM to 1 pM.

[3] = target: T1, human β2 adrenergic receptor; test: Radioligand binding assay for human β2 adrenergic receptor; settings: displacement of [3H]-dihydroalprenolol, CHO cell membranes

T1 sequence (P07550 whole entry): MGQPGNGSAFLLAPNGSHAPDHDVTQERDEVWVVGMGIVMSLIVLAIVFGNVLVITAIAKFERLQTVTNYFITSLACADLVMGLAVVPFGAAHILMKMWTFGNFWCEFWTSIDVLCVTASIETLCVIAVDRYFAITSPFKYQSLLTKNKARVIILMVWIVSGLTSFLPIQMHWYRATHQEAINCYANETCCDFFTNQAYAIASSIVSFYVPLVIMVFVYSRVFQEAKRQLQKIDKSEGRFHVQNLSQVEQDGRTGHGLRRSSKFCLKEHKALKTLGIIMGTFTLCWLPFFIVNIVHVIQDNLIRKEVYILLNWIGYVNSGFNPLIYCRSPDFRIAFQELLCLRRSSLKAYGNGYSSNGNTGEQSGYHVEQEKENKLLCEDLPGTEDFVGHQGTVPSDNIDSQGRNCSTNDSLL

O=C(CCN1CCC(OC(=O)Nc2ccccc2-c2ccccc2)CC1)NCCCCCNC[C@H](O)c1ccc(O)c2[nH]c(=O)ccc12 [Example 6, Biphenyl-2-ylcarbamic Acid 1-(2-{5-[(R)-2-Hydroxy-2-(8-hydroxy-2-oxo-1,2-dihydroquinolin-5-yl)ethylamino]pentylcarbamoyl}ethyl)piperidin-4-yl Ester, Ditrifluoroacetate]
< 10 nM: EC50 [1] | Ki (M3 muscarinic receptor) | EC50 [2] | Ki [3]
